Measured values: patent publication US20250066739A1, “Compositions and Methods for Improving Squamous Epithelial Organoids and Their Production” (The Trustees of Columbia University in the City of New York, priority 2022, published 2025)

Experiments:
[1] = tested on: EPC1 and EPC2 hTERT-immortalized normal esophageal keratinocytes; test: Organoid formation by EPC1/EPC2 esophageal 3D organoids; assay type: cell-based
Procedure: (§1) In general, 2×10^4 cells were seeded per well to initiate PDO in 24-well plates, which were pre-warmed to 37° C. 1.4×10^5 cells were transferred into a 1.7-mL tube and centrifuged at 500×g (2,300 rpm on Eppendorf 5424R) for 3 min at room temperature to pellet cells. Cells were resuspended in 350 μL ice-cold MATRIGEL® and 50 μL of the suspension was aliquoted into each well of 24-well plate. The 24-well plate was placed in a CO2 incubator at 37° C. for 30 min to allow the MATRIGEL® to solidify.
(§2) 500 μL of a tumor-type specific organoid medium (see Example 11) was added to each well, and the organoid media was changed every 2 to 3 days. Contamination and organoid growth was monitored under a phase-contrast microscope, and organoids were allowed to grow for 10 to 14 days and then passaged or harvested. If spherical structures were observed but grew slowly, the culturing period was extended for another 7 to 14 days.
To evaluate organoid growth, 3D organoid structures were monitored during culturing, and their size was documented by a conventional phase-contrast inverted microscope or high-throughput cell imaging instruments (e.g., Celigo Image Cytometer, Nexcelom Bioscience) with the capacity of automated multi-well rapid imaging and quantitative analysis of organoid size, number, and structure. Organoids were grown in 24-well or 96-well plates as described above, and phase-contrast images were manually acquired. Using ImageJ software, the diameter of at least 5 organoids per well was measured. The Celigo Image Cytometer was also used to acquire phase-contrast images and calculate mean organoid area for all organoids imaged. Growth curves were subsequently calculated by repeating measurements every other day and plotting organoid diameter or area at each time point.
In order to improve the success rate of creating and subculturing organoids through increasing numbers of passages, alterations to existing media were explored and compared to each other and the HC media described in Driehuis et al., Cancer Discov, 2019; 9:852-71. […]

neoplastic PDOs = test: Growth and formation of neoplastic PDOs; assay type: cell-based, human; settings: FIG. 2
Procedure: as §1, §2
To evaluate organoid growth, 3D organoid structures were monitored during culturing, and their size was documented by a conventional phase-contrast inverted microscope or high-throughput cell imaging instruments (e.g., Celigo Image Cytometer, Nexcelom Bioscience) with the capacity of automated multi-well rapid imaging and quantitative analysis of organoid size, number, and structure. […] Using ImageJ software, the diameter of at least 5 organoids per well was measured. […]

Row | Compound | EPC1/EPC2 organoid growth in HOME50 devoid of A83-01 ([1]; medium lacking A83-01 (ΔA), FIG. 5) | organoid formation and structure ([1]; effect of EGF concentration, esophageal 3D organoids, FIG. 1) | squamous-cell differentiation gradient ([1]; low EGF concentration, FIG. 1) | growth and formation of neoplastic PDOs (neoplastic PDOs)
1 | Cc1cccc(-c2nn(C(=S)Nc3ccccc3)cc2-c2ccnc3ccccc23)n1 [A83-01, reference compound] | did not grow |  |  | 
2 | EGF: Recombinant human epidermal growth factor (Peprotech, cat. No. AF-100-15) (NSDSECPLSHDGYCLHDGVCMYIEALDKYACNCVVGYIGERCQYRDLKWWELR; Epidermal growth factor; UniProt P01133 971-1023, looked up) |  | influences organoid formation and structure | more closely recapitulates a normal squamous-cell differentiation gradient | may stimulate growth, if not formation
